From publication PMC6412019, “Discovery of NV-5138, the first selective Brain mTORC1 activator” (Scientific Reports, 2019)
“Also recorded” adds a separate entry of the source.

Key:
Sestrin2 = molecular target: T1, Sestrin2 (Homo sapiens, UniProt P58004); assay: Cellular thermal shift assay (CETSA), intracellular Sestrin2 in HEK-293T cells; assay type: cell-based; conditions: 30 min, leucine-starved HEK293T cells, read-out: increase of melting temperature of intracellular Sestrin2
T1 sequence (P58004 1-480): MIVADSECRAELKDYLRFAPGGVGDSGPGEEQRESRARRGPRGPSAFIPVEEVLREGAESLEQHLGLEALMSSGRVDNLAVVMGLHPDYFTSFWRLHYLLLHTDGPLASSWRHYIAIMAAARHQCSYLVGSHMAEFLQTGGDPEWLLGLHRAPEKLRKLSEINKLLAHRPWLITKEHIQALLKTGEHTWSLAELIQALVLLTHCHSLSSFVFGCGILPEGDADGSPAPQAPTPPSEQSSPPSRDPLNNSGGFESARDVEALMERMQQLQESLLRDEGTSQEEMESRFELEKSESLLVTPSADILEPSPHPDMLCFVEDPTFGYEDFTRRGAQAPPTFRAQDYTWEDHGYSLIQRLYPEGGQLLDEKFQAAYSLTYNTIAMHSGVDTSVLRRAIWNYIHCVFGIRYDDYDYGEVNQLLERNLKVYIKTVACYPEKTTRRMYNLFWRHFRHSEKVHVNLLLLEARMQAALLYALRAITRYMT
Protocol: (§1) Expression of flag-WDR24 allows for immunoprecipitation of the Sestrin2/GATOR2 complex from amino acid-starved cells with an anti-flag antibody. […] Finally, to determine whether Sestrins and the GATOR pathway are required for NV-5138 activity, HEK-293T cells null for all three Sestrin isoforms or the GATOR1 component Nprl3 were obtained.
(§2) CETSA was performed as previously described. […] Cells were then collected, centrifuged for 3 min at 300 g at room-temperature (RT), washed with PBS, centrifuged again, and finally resuspended in 1 ml of RT PBS containing EDTA-free protease-inhibitor tablets (Roche). 100 µl of each cell suspension was heated at the noted temperature for 3 min, samples were then placed on the bench at RT for 3 min before being flash-frozen in liquid nitrogen. To lyse the cells, samples were put through two cycles of freeze-thawing followed by centrifugation at 20,000 g for 20 min at 4 °C. 80 µl of the resulting supernatant was denatured and, resolved by SDS-PAGE. Membranes were imaged using the LI-COR imaging system. Antibodies used are listed in Supplementary Information.

Sestrin1 = molecular target: T2, Sestrin1 (Homo sapiens, UniProt Q9Y6P5); assay: Cellular thermal shift assay (CETSA), intracellular Sestrin1 in HEK-293T cells; assay type: cell-based; conditions: 30 min, leucine-starved HEK293T cells, read-out: increase of melting temperature of intracellular Sestrin1
T2 sequence (Q9Y6P5 67-492 limits assumed): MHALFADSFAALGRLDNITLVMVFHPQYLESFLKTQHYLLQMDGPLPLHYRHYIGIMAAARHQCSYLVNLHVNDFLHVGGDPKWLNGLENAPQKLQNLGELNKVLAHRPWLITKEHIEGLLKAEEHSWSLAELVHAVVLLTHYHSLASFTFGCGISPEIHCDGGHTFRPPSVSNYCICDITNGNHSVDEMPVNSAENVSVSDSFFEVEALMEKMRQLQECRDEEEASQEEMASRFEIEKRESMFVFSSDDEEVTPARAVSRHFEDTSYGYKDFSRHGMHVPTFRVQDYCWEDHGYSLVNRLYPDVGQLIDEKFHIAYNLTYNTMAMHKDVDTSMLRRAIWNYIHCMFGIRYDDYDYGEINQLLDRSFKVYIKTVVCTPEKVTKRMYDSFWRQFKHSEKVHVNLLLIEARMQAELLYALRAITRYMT
Protocol: as §1, §2

Sestrin3 = molecular target: T3, Sestrin3 (Homo sapiens, UniProt P58005); assay: Cellular thermal shift assay (CETSA), intracellular Sestrin3 in HEK-293T cells; assay type: cell-based; conditions: 300 µM, 30 min, leucine-starved HEK293T cells
T3 construct: endogenous in cells; host or cells: HEK-293T
T3 sequence (P58005 1-492): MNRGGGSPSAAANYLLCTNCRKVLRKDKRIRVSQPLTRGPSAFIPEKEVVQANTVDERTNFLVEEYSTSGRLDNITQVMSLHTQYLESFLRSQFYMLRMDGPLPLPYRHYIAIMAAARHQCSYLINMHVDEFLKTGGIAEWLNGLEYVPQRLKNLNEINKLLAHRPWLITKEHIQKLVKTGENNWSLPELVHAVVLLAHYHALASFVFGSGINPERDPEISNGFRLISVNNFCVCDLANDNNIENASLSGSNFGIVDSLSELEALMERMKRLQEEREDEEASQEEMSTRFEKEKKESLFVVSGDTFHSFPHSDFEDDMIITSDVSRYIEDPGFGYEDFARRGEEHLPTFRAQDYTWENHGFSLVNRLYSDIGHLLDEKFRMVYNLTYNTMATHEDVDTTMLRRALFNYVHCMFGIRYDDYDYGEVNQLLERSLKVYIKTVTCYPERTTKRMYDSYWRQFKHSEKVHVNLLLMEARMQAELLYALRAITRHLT
Protocol: as §1, §2

HeLa cells = assay: 14C-leucine protein incorporation assay in HeLa cells; assay type: cell-based, human; conditions: for effect on incorporation of 14C-leucine into precipitated proteins: 30 min labeling, CHX 10 ug/ml
Protocol: Since NV-5138 is an amino acid, we performed two different experiments to rule out any potential liabilities that could arise from the incorporation of NV-5138 into proteins. We first determined whether NV-5138 substitutes for any branched-chain amino acid or methionine into newly synthesized proteins using liquid chromatography followed by tandem mass spectroscopy (LC-MS/MS). NV-5138 (100 µM) or vehicle was incubated with serum and leucine-starved 293T cells for 6 hours followed by proteomic analysis by mass spectrometry.
After incubation, cells were harvested and lysed in Tris/HCl 10 mM pH 7.4 plus 1% NP40. Lysate were mixed with water and 20% trichloroacetic acid (1:1:2) and incubated on ice for 2 h to precipitate the protein. Proteins were collected by centrifugation, solubilized in NaOH, placed in scintillation fluid and read on a Wallac Microbeta Trilux 2450 with a 2-min count. Scintillation values were normalized as the percentage of the counts from the DMSO-treated wells.

ΔTm at 300 µM (Sestrin2) [°C]	ΔTm at 300 µM (Sestrin1) [°C]	SMILES	change of melting temperature of intracellular Sestrin3 (Sestrin3)	effect on incorporation of 14C-leucine into precipitated proteins (HeLa cells)	effect on 14C-leucine incorporation at high doses (HeLa cells; high doses)
~2	~2	CC(C)(C[C@H](N)C(=O)O)C(F)F [NV-5138, (S)-2-amino-5,5-difluoro-4,4-dimethylpentanoic acid]	neither NV-5138 nor leucine changed the melting temperature; also recorded: does not impact the melting temperature	did not show any competition	appeared to increase
~2	~2	CC(C)C[C@H](N)C(=O)O [Leucine, L-leucine, reference compound]	neither NV-5138 nor leucine changed the melting temperature	blocked incorporation	
